Laboratory results taken from patent US11613750B2, “Methods of reducing virus molecule levels” (priority 2019, dated 2023).

Columns and labels:
HBsAg = details: HepG2.2.15 cells; for EC50: read-out: EC50, Extracell. HBsAg reduction
Experimental: (§1) Cell viability was assessed by ATP levels determined using the CellTiter-Glo reagent and the results normalized to the level in mock-treated cells. HBsAg levels were quantified using ELISA and the data normalized to the level in the mock-treated cells.
The cellular proteins GRP78/BIP, SRSF1, HNRNPA2B1, RPLP1, and RPLP2 were identified as having roles in HBV replication and infection. Various siRNAs and combinations thereof targeting the RNAs encoding these proteins were contacted with HepG2.2.15 cells at a final concentration of 7.5 nM.
The EC50 values of several siRNAs and combinations of siRNAs targeting HNRNPA2B1, GRP78, RPLP1, RPLP2, and/or SRSF1 were determined with respect to the ability to reduce HBsAg levels in HepG2.2.15 cells.
(§2) The ability of siRNAs targeting host factors that then results in the reduced production of multiple HBV molecules was evaluated by quantifying the amount of HBsAg, HBeAg, and Core protein produced by HepG2.2.15 cells after contacting with 10 nM of siRNAs that target HNRNPA2B1, GRP78, RPLP1, RPLP2, and SRSF1. We also contacted the cells with 5 nM of each set of siRNAs that targets both RPLP1 and RPLP2. The level of HBsAg, HBeAg, and Core were all determined using ELISAs.
(§3) The library of siRNAs of Example A5 were tested for the reduction of HBsAg secreted by HepG2.2.15 cells and in HBV virions.

HepG2.2.15 cells = assay: HepG2.2.15 cell viability, CellTiter-Glo; details: for CC50: read-out: CC50, HepG2.2.15 cell viability, highest concentration tested 80 nM
Experimental: as §1
The effects on cell viability were quantified using the CellTiter-Glo reagent. All data were normalized to the amount of protein produced by mock-treated cells.
as §3

RPLP2 protein = assay: Target protein reduction by Western blot in HepG2.2.15 cells; format: cell-based, human; details: 10 nM siRNA, 72 h
Experimental: The host factors likely function in viral infection as proteins. Therefore, we determined whether the siRNAs could decrease the amounts of the target protein. Cell transfected with 10 nM of each siRNA for 72 h were lysed and the target proteins identified using Western blots probed with target-specific antibodies. The effective siRNAs described in Table 3 reduced the levels of the proteins by between 28 and 92% of the mock-treated samples. The reduction in the proteins is less than the reduction of the target mRNA, likely due to the proteins have prolonged half-life and that more time is needed for their degradation. […] We reason that this is due to RPLP1 and RPLP2 functioning as heterodimers such that a decrease of one protein increases the vulnerability of the other protein to degradation. Similar concomitant decrease of the proteins was reported by Campos et al. (17). Finally, the levels of two cellular proteins that are not targeted by the siRNAs, P54nrb and GAPDH, were unaffected.

HBeAg = details: for HBeAg reduction HepG2.2.15 cells: 10 nM siRNA transfected into cells
Experimental: HBeAg in the cell culture media was assessed using ELISAs.
as §2, §3

HCoV-OC43 = assay: OC43 virion RNA, Branched DNA assay, infected HCT8 cells; format: cell-based, human coronavirus OC43; details: for OC43 vRNA reduction siRNA and siGRP78: 10 nM siRNA along with 10 nM of siRNA targeting GRP78, HCT8 cells; for OC43 vRNA reduction: 10 nM siRNA, HCT8 cells
Experimental: The siRNAs were transfected in the HCT8 cells at a final concentration of 10 nM. A positive control for the inhibition of Coronavirus infection, Remdesivir (Rem), was used at 0.9 μM. The virion RNAs (vRNAs) were quantified using a Branched DNA assay specific for OC43 RNA.
The two siRNAs are those referred to by compound number (see Table 2) in the horizontal bar, along with siRNA targeting GRP78, siGRP78. A positive control for the inhibition of Coronavirus infection, Remdesivir (Rem), was used at 0.9 μM. The vRNAs were quantified using a Branched DNA assay specific for OC43 RNA.
The siRNAs listed in Table 2 were transfected into human colon epithelial HCT8 cells and the amount of OC43 virion produced was quantified. In these assays, the OC43 vRNA was quantified using a Branched DNA assay (QuantiGene gene expression assay: ThermoFisher). As a positive inhibitory control, the infected cells were treated with Remdesivir. […] Examples of the inhibition of OC43 vRNA are illustrated in FIG. 5A.
A combination of siRNAs targeting the host factor should more robustly reduce OC43 virion production. To illustrate this, HCT8 cells were transfected with 10 nM of siRNAs from Table 2 along with 10 nM of siRNA targeting GRP78. The virion RNAs produced were quantified using the Branched DNA assay. […] A combination of siRNAs targeting host factors GRP78, SRSF1, RPLP1 and RPLP2 can lead to significant reduction in the production of human Coronavirus virion RNA from infected cells.

RPLP2 mRNA = assay: Target mRNA reduction by RT-qPCR in HepG2.2.15 cells; format: cell-based, human; details: 10 nM siRNA
Source text: The siRNAs identified as described in Example A6 should function by a mechanism that includes being loaded in the RISC complex to cleave the cognate mRNA, leading to the degradation of the mRNA. To examine whether the siRNAs are effective in reducing the target mRNA, we used reverse transcription coupled with quantitative polymerase chain reaction (RT-qPCR) to assess the level of the target mRNA in HepG2.2.15 cells. All 32 siRNAs described in Table 2 reduced the mRNA by more than 75% (Table 3).

Substance: 34 (GCUGAAUGGAAAAAACAUUGATTAAUGUUUUUUCCAUUCAGCUCTT; siRNA; Self-complementary hairpin strand, chemistry not given here, further chemistry not given here; listed as Homo sapiens) [compound 34]
- HBsAg level, dose response (HBsAg; FIG. 5A): dose-dependent reduction of HBV S-antigen (HBsAg)
- EC50 (HBsAg): 0.15 nM
- CC50 (HepG2.2.15 cells): > 80 nM
- cytotoxicity / cell viability, siRNA library (HepG2.2.15 cells; up to the highest concentration tested, 80 nM): without affecting cell viability
- Target protein reduction in HepG2.2.15 cells (RPLP2 protein): 62.5 ± 3%
- HBeAg reduction HepG2.2.15 cells (HBeAg): 74 ± 4%
- HBeAg level, siRNA library (HBeAg; HepG2.2.15 cells, Example A6, FIG. 5A): inhibited the levels of HBsAg and HBeAg
- OC43 vRNA reduction siRNA and siGRP78 (HCoV-OC43): 86 ± 5%
- OC43 vRNA reduction (HCoV-OC43): 86 ± 3%
- Target RNA reduction in HepG2.2.15 cells (RPLP2 mRNA): 93 ± 1%

Substance: 35 (GGGAUUUGGCCUUUUUGAUUATTAUCAAAAAGGCCAAAUCCCAUTT; siRNA; Self-complementary hairpin strand, chemistry not given here, further chemistry not given here; listed as Homo sapiens) [compound 35]
- EC50 (HBsAg): 0.01 nM
- CC50 (HepG2.2.15 cells): > 80 nM
- Target protein reduction in HepG2.2.15 cells (RPLP2 protein): 78 ± 16%
- HBeAg reduction HepG2.2.15 cells (HBeAg): 69 ± 3%
- OC43 vRNA reduction siRNA and siGRP78 (HCoV-OC43): 96 ± 1%
- OC43 vRNA reduction (HCoV-OC43): 94 ± 6%
- Target RNA reduction in HepG2.2.15 cells (RPLP2 mRNA): 98 ± 0%

Substance: 36 (CCUUUUUGAUUAAAUUCCUGCTTAGGAAUUUAAUCAAAAAGGCCTT; siRNA; Self-complementary hairpin strand, chemistry not given here, further chemistry not given here; listed as Homo sapiens) [compound 36]
- EC50 (HBsAg): 9.2 nM
- CC50 (HepG2.2.15 cells): > 80 nM
- Target protein reduction in HepG2.2.15 cells (RPLP2 protein): 57 ± 3%
- HBeAg reduction HepG2.2.15 cells (HBeAg): 26 ± 5%
- OC43 vRNA reduction siRNA and siGRP78 (HCoV-OC43): 87 ± 6%
- Target RNA reduction in HepG2.2.15 cells (RPLP2 mRNA): 94 ± 1%

Substance: 37 (CUGAAUGGAAAAAACAUUGAAUUUUCAAUGUUUUUUCCAUUCAGUU; siRNA; Self-complementary hairpin strand, chemistry not given here, further chemistry not given here; listed as Homo sapiens) [compound 37]
- EC50 (HBsAg): 0.049 nM
- CC50 (HepG2.2.15 cells): > 80 nM
- Target protein reduction in HepG2.2.15 cells (RPLP2 protein): 71 ± 10%
- HBeAg reduction HepG2.2.15 cells (HBeAg): 53 ± 3%
- OC43 vRNA reduction siRNA and siGRP78 (HCoV-OC43): 88 ± 5%
- OC43 vRNA reduction (HCoV-OC43): 94 ± 2%
- Target RNA reduction in HepG2.2.15 cells (RPLP2 mRNA): 98 ± 1%

Substance: 38 (AGUGUACCUGCUGGUGGGGCUUUAGCCCCACCAGCAGGUACACUUU; siRNA; Self-complementary hairpin strand, chemistry not given here, further chemistry not given here; listed as Homo sapiens) [compound 38]
- EC50 (HBsAg): 0.076 nM
- CC50 (HepG2.2.15 cells): > 80 nM
- Target protein reduction in HepG2.2.15 cells (RPLP2 protein): 55 ± 2%
- OC43 vRNA reduction siRNA and siGRP78 (HCoV-OC43): 61 ± 14%
- OC43 vRNA reduction (HCoV-OC43): 39 ± 6%
- Target RNA reduction in HepG2.2.15 cells (RPLP2 mRNA): 96 ± 1%

Substance: 39 (AGAGGAGAAGAAAGAUGAGAAUUUUCUCAUCUUUCUUCUCCUCUUU; siRNA; Self-complementary hairpin strand, chemistry not given here, further chemistry not given here; listed as Homo sapiens) [compound 39]
- EC50 (HBsAg): 0.103 nM
- CC50 (HepG2.2.15 cells): > 80 nM
- Target protein reduction in HepG2.2.15 cells (RPLP2 protein): 48 ± 9%
- HBeAg reduction HepG2.2.15 cells (HBeAg): 59 ± 4%
- OC43 vRNA reduction siRNA and siGRP78 (HCoV-OC43): 86 ± 6%
- OC43 vRNA reduction (HCoV-OC43): 91 ± 2%
- Target RNA reduction in HepG2.2.15 cells (RPLP2 mRNA): 96 ± 1%

Substance: 40 (AGUCUGAAGAGUCAGAUGAUGUUCAUCAUCUGACUCUUCAGACUUU; siRNA; Self-complementary hairpin strand, chemistry not given here, further chemistry not given here; listed as Homo sapiens) [compound 40]
- EC50 (HBsAg): 0.114 nM
- CC50 (HepG2.2.15 cells): > 80 nM
- Target protein reduction in HepG2.2.15 cells (RPLP2 protein): 54 ± 2%
- HBeAg reduction HepG2.2.15 cells (HBeAg): 56 ± 3%
- OC43 vRNA reduction siRNA and siGRP78 (HCoV-OC43): 79 ± 15%
- OC43 vRNA reduction (HCoV-OC43): 89 ± 5%
- Target RNA reduction in HepG2.2.15 cells (RPLP2 mRNA): 98 ± 1%
